Experiments:
[1] = target: T1, bradykinin 1 receptor (B1R) of the rat (Rattus norvegicus, UniProt P97583); assay: Functional investigation on the rat bradykinin 1 receptor (B1R), Ca2+ FLIPR assay in CHO K1 rB1R cells; assay type: cell-based; conditions: B1R antagonism rat; test substance 10 μM; Ca2+ FLIPR, CHO K1 rB1R cells
T1 construct: expressed in transfected cells; host or cells: CHO K1 cells
T1 sequence (P97583 1-337): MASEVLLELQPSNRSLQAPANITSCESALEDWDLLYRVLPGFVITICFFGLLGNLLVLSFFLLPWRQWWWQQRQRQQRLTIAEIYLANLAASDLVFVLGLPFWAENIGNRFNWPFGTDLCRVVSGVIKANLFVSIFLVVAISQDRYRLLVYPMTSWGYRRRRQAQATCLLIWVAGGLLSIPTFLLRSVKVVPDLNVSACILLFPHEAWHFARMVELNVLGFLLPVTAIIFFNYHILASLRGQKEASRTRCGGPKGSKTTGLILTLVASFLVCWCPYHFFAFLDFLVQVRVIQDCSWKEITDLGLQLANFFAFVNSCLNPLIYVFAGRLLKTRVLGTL
How it was run: (§1)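 Stably transfected CHO K1 cells loaded with Fluo-4; FLIPR Ca2+ fluorescence peak (ex 488/em 540 nm). Compound added first (agonism vs Lys-Des-Arg9-bradykinin ≥50 nM human, Des-Arg9-bradykinin 10 μM rat), then after 10-20 min agonist at EC80; antagonism as % inhibition, IC50 from concentration series, n=2-3, N≥2.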

[2] = target: T2, human bradykinin 1 receptor (B1R) (Homo sapiens, UniProt P46663); assay: Functional investigation on the human bradykinin 1 receptor (B1R), Ca2+ FLIPR assay in CHO K1 hB1R cells; assay type: cell-based; conditions: B1R antagonism human; test substance 10 μM; Ca2+ FLIPR, CHO K1 hB1R cells
T2 construct: expressed in transfected cells; host or cells: CHO K1 cells
T2 sequence (P46663 1-353): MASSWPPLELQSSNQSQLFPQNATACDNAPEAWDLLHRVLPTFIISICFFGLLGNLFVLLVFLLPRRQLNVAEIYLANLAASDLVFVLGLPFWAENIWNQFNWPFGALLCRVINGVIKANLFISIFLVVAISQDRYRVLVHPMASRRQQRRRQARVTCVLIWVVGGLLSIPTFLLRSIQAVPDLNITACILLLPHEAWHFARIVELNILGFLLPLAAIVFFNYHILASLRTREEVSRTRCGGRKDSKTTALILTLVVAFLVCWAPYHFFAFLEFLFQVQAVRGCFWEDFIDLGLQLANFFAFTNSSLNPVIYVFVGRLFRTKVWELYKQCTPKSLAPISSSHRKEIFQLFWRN
How it was run: as §1

| SMILES | B1R Ant. r [10 μM] % Inhibition [1] [%] | B1R Ant. h [10 μM] % Inhibition [2] [%] |
| --- | --- | --- |
| CN(C)C(c1ccc(F)cc1)C1CCC(CCNC(=O)COCCN(C)S(=O)(=O)c2ccc(F)cc2)CC1 (stereo not drawn) [Example 487] | 9 | 9 |
| CN(C)C(c1ccc(F)cc1)C1CCC(NC(=O)COCCN2CCN(S(=O)(=O)c3ccccc3)CC2)CC1 (stereo not drawn) [Example 502] | 21 | −3 |
| CN(C)C(CCc1ccccc1)C1CCC(CNC(=O)COCCN2CCN(S(=O)(=O)c3ccccc3)CC2)CC1 (stereo not drawn) [Example 526] | −30 | 10 |
| CN(C)C(c1ccc(F)cc1)C1CCC(CCNC(=O)COC2CCN(S(=O)(=O)c3ccc(Cl)cc3Cl)C2)CC1 (stereo not drawn) [Example 456] | 48 | 80 |
| COc1ccc(S(=O)(=O)N2CCCCC2COCC(=O)NCCC2CCC(C(c3ccc(Cl)cc3)N(C)C)CC2)c(OC)c1 (stereo not drawn) [Example 474] | 10 | 17 |
| Cc1cc(C)c(S(=O)(=O)N2CCC(OCC(=O)NCC3CCC(C(CCc4ccccc4)N(C)C)CC3)C2)c(C)c1 (stereo not drawn) [Example 475] | 40 | 103 |
| Cc1cc(C)c(S(=O)(=O)N(C)CCOCC(=O)NC2CCC(C(c3ccc(F)cc3)N(C)C)CC2)c(C)c1 (stereo not drawn) [Example 490] | 12 | 45 |
| COc1ccc(S(=O)(=O)N(C)CCOCC(=O)NCCC2CCC(C(c3ccc(Cl)cc3)N(C)C)CC2)cc1 (stereo not drawn) [Example 460] | 71 | 50 |
| COc1ccc(S(=O)(=O)N2CCCCC2COCC(=O)NCCC2CCC(C(c3ccc(Cl)cc3)N(C)C)CC2)cc1OC (stereo not drawn) [Example 540] | 19 | −19 |
| CN(C)C(CCc1ccccc1)C1CCC(CNC(=O)COCCN(C)S(=O)(=O)c2ccc(F)cc2)CC1 (stereo not drawn) [Example 539] | 32 | 27 |
| COc1ccc(S(=O)(=O)N(C)CCOCC(=O)NCC2CCC(C(c3ccc(F)cc3)N(C)C)CC2)cc1 (stereo not drawn) [Example 508] | 42 | 46 |
| COc1ccc(S(=O)(=O)N(C)CCOCC(=O)NCCC2CCC(C(c3ccc(F)cc3)N(C)C)CC2)cc1 (stereo not drawn) [Example 519] | 44 | 38 |
| COc1ccc(S(=O)(=O)N2CCCCC2COCC(=O)NC2CCC(C(c3ccc(F)cc3)N(C)C)CC2)cc1 (stereo not drawn) [Example 450] | 52 | 40 |
| CN(C)C(CCc1ccccc1)C1CCC(CNC(=O)COC2CCN(S(=O)(=O)c3ccc(Cl)cc3Cl)C2)CC1 (stereo not drawn) [Example 496] | 35 | 98 |
| COc1cc(C)c(S(=O)(=O)N(CCOCC(=O)NC2CCC(C(c3ccc(F)cc3)N(C)C)CC2)Cc2ccccc2)c(C)c1C (stereo not drawn) [Example 523] | 26 | 50 |
| COc1ccc(S(=O)(=O)N2CCC(OCC(=O)NCC3CCC(C(c4ccc(F)cc4)N(C)C)CC3)C2)cc1OC (stereo not drawn) [Example 497] | 17 | −4 |
| CN(C)C(c1ccc(F)cc1)C1CCC(CNC(=O)COC2CCCN(S(=O)(=O)c3ccccc3)C2)CC1 (stereo not drawn) [Example 488] | −6 | 4 |
| COc1ccc(S(=O)(=O)N2CCCCC2COCC(=O)NC2CCC(C(c3ccc(F)cc3)N(C)C)CC2)c(OC)c1 (stereo not drawn) [Example 524] | 26 | −11 |
| CN(C)C(c1ccccc1)C1CCC(CNC(=O)COCCC2CCN(S(=O)(=O)c3ccccc3)CC2)CC1 (stereo not drawn) [Example 507] | 3 | −19 |
| COc1ccc(S(=O)(=O)N2CCCCC2COCC(=O)NCC2CCC(C(CCc3ccccc3)N(C)C)CC2)cc1 (stereo not drawn) [Example 469] | 87 | 91 |
| COc1ccc(S(=O)(=O)N2CCCCC2COCC(=O)NCCC2CCC(C(c3ccc(F)cc3)N(C)C)CC2)c(OC)c1 (stereo not drawn) [Example 500] | 23 | 3 |
